Experimental data reported in patent US20080008734A1, “Reduction of skin irritation caused by biomedical electrodes” (priority 2006, published 2008).

Columns and labels:
skin = test: Stimulation erythema with antioxidant incorporated in the conductive hydrogel adhesive; type: in vivo; conditions: in UV cured acrylic hydrogel adhesive; this amount gave a very weak adhesive that cohesively failed
Source text: In the majority of conductive hydrogel adhesives used in these biomedical electrodes are UV cured acrylics formed by the free radical polymerization of hydrophilic acrylic monomers in water. UV light generates free radicals from photoinitiators, however antioxidants react with these free radicals thereby inhibiting the polymerization of the acrylic monomers. Antioxidants such as MEHQ are used to preserve acrylic monomers until use. […] A few ppm of the very potent antioxidant Astaxathin inhibited polymerization. The greater than 1500 ppm of MEHQ alone that was needed to prevent and/or alleviate stimulation erythema gave a very weak hydrogel adhesive that cohesively failed leaving residue on the skin.

[1] = Stability of SAP in the aqueous environment of hydrogel adhesives; type: physicochemical; conditions: pH 4.0±0.5 aqueous environment of the hydrogel adhesives
Source text: (See U.S. Pat. No. 6,842,636 B2 to Perrault, et al. and U.S. Pat. No. 6,115,625 to Heard et al.).

| Structure (SMILES) | amount of MEHQ alone needed to prevent and/or alleviate stimulation erythema (skin) | stability over time [1] |
| --- | --- | --- |
| COc1ccc(O)cc1 [MEHQ, monomethyl ether of hydroquinone] | greater than 1500 ppm | – |
| O=C1O[C@H](C(O)CO)C(O)=C1OP(=O)(O)O (some centres unmarked) [SAP, Sodium Ascorbyl Phosphate] | – | not stable over time |
